pIC50, pKd: −log10 of the molar value. Read-outs that look alike come from different tables or passages of the source.
Columns and labels:
PDGFRβ = target: T1, PDGFRβ (Homo sapiens, UniProt P09619); assay: Competition binding assay, PDGFRβ Kd; conditions: competition binding
T1 construct: made in house
In short: (§1)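 Compound displacement of kinase from bead-immobilized ligand is measured by qPCR after 1 h equilibration at room temperature. Kinases are T7 phage fusions or DNA-tagged HEK-293 products.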

CSF1R [1] = target: T2, CSF1R (Homo sapiens, UniProt P07333); assay: Competition binding assay, CSF1R Kd; design: made in house; conditions: competition binding
In short: as §1

M-NFS-60 cells = assay: M-NFS-60 cell proliferation assay (Alamar Blue); assay type: cell-based, mouse; conditions: M-NFS-60 cell proliferation, read-out: CSF1R M-NFS-60 CTB:IC50
In short: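 Mouse M-NFS-60 cells growing on 20 ng/mL M-CSF in RPMI/10% FBS were exposed to compounds (9 half-log concentrations, 0.5% DMSO) for 72 h at 37 °C. Viability read by Alamar Blue fluorescence (ex 560/em 590 nm, 3 h). IC50 = 50% proliferation inhibition versus control, mean of duplicates.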

KIT = target: T3, KIT (Homo sapiens, UniProt P10721); assay: Competition binding assay, KIT Kd; conditions: competition binding
T3 construct: made in house
In short: as §1

CSF1R [2] = target: T2, CSF1R; assay: HEK293 CSF1R phosphorylation MSD assay; assay type: cell-based; design: expressed in transfected cells; host or cells: HEK293; conditions: HEK293 cells, M-CSF stimulated CSF1R phosphorylation, MSD; read-out: HEK293 pCSF1R M-CSF MSD:IC50
In short: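 HEK293 cells expressing CSF1R-FKBP were pretreated 2 h at 37° C with 9 half-log concentrations of compound (0.5% DMSO final), then stimulated 5 min with 50 ng/mL human M-CSF. Lysates captured on biotin-FK506 plates; phosphotyrosine detected by MSD electrochemiluminescence. IC50 versus DMSO, averaged from duplicate plates.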

T3 sequence (P10721 26-976): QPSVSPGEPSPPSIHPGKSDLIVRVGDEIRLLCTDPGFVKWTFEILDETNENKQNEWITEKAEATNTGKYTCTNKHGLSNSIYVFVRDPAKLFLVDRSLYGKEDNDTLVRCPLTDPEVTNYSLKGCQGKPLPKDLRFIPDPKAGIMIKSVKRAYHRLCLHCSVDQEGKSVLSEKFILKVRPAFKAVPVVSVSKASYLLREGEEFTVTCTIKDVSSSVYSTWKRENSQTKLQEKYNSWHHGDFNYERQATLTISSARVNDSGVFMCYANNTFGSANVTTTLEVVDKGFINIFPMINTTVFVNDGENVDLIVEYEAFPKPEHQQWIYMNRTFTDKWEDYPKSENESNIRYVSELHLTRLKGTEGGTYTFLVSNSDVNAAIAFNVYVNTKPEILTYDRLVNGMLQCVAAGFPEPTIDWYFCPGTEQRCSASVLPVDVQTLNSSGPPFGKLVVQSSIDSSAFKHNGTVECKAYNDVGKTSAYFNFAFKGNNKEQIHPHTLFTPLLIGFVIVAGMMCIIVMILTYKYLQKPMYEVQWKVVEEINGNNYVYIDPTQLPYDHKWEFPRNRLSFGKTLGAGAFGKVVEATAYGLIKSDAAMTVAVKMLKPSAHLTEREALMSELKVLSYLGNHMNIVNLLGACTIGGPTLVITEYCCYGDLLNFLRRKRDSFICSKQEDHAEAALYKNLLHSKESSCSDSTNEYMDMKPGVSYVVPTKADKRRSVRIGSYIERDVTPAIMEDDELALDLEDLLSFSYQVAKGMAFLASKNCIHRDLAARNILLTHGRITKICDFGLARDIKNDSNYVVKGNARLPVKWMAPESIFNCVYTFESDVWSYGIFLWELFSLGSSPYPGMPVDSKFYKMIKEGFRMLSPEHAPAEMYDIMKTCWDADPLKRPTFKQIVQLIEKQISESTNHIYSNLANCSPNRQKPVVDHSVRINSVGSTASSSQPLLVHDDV
T1 sequence (P09619 33-1106): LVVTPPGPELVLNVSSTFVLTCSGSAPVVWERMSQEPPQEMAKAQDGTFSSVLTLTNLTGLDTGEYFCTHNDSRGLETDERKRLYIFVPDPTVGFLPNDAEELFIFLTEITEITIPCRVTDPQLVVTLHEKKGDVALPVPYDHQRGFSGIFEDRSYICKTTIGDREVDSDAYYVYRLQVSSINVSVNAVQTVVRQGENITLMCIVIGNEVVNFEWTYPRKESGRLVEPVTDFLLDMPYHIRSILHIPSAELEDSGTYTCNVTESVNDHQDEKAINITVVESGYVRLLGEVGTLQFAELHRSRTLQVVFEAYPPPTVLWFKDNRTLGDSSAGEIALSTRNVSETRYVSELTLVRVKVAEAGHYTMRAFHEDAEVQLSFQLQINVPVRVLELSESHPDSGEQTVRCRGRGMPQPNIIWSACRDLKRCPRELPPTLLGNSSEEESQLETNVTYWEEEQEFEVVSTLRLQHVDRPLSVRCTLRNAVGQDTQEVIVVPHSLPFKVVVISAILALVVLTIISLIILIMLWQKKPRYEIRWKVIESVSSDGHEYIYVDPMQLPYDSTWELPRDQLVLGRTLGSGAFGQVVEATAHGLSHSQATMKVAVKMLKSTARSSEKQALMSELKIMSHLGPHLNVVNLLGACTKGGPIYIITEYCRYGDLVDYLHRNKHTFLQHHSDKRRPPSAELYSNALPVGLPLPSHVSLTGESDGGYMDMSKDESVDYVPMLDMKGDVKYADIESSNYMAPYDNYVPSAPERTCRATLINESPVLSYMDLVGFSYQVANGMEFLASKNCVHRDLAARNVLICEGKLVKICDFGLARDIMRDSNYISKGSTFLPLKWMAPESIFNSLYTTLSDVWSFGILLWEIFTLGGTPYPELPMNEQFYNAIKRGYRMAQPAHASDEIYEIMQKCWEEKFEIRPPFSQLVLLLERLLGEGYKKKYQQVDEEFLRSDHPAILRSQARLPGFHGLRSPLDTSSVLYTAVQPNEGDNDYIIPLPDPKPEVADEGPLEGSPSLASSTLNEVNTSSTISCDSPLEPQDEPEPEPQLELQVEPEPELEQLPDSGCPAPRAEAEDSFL
T2 sequence (P07333 20-972): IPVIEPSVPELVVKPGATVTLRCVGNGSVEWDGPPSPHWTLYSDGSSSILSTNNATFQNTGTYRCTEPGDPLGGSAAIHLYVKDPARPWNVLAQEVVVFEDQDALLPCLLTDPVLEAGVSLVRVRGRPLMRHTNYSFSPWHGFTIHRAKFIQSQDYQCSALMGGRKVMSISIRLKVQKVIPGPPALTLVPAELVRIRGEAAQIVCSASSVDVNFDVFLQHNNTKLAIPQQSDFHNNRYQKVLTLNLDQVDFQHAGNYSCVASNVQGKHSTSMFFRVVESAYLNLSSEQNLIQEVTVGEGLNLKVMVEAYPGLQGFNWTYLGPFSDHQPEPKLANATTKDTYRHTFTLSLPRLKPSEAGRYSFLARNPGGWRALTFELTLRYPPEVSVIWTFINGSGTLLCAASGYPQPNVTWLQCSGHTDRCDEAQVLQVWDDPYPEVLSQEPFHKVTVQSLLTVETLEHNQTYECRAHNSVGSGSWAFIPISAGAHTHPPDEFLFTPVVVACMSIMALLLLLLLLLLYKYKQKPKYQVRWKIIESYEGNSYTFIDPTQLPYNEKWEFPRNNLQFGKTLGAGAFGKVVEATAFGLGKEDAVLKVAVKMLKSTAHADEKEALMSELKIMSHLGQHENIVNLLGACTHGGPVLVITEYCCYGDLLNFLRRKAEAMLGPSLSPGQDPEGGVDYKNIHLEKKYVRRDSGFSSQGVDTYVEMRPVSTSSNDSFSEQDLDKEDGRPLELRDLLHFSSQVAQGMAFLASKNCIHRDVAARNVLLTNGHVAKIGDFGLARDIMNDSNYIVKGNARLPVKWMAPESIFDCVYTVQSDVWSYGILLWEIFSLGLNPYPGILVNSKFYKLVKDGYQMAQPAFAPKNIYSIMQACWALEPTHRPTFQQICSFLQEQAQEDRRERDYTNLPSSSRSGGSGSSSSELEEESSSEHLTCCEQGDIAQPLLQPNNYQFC

SMILES | pKd (PDGFRβ) | pKd (CSF1R [1]) | pKd (KIT) | pIC50 (CSF1R [2]) | pIC50 (M-NFS-60 cells; Mus musculus) | pIC50 (M-NFS-60 cells)
CNC(=O)c1ccc2ncc(Cc3ccc4nc(N[C@@H]5CCCC[C@H]5O)sc4c3)n2n1 [Example 143, 3-((2-(((1R,2R)-2-hydroxycyclohexyl)amino)benzo[d]thiazol-6-yl)methyl)-N-methylimidazo[1,2-b]pyridazine-6-carboxamide] | 5.70 to 6.30 | 7.70 to 8.30 | 5.70 to 6.30 | 6.30 to 6.70 | 5.82 to 6.40 | 
N#Cc1ccc2c(c1)ncn2Cc1ccc2nc(N[C@@H]3CCCC[C@H]3O)sc2c1 [Example 108, 1-((2-(((1R,2R)-2-hydroxycyclohexyl)amino)benzo[d]thiazol-6-yl)methyl)-1H-benzo[d]imidazole-5-carbonitrile] | 5.70 to 6.30 | 7.70 to 8.30 | 5.70 to 6.30 | 6.70 to 7.30 | 6.40 to 7.30 | 
O[C@@H]1CCCC[C@H]1Nc1nc2ccc(Cc3cnc4ccc(-n5cccn5)cn34)cc2s1 [Example 159, (1R,2R)-2-((6-((6-(1H-pyrazol-1-yl)imidazo[1,2-a]pyridin-3-yl)methyl)benzo[d]thiazol-2-yl)amino)cyclohexanol] | 5.70 to 6.30 | 7.70 to 8.30 | 5.70 to 6.30 | 6.30 to 6.70 | 5.82 to 6.40 | 
N#Cc1ccc2c(c1)ncn2Cc1ccc2nc(N[C@@H]3CCCC[C@H]3O)oc2c1 [Example 170, 1-((2-(((1R,2R)-2-hydroxycyclohexyl)amino)benzo[d]oxazol-6-yl)methyl)-1H-benzo[d]imidazole-5-carbonitrile] | 5.70 to 6.30 | < 7.30 | < 5.70 | < 6.30 | < 5.82 | 
O[C@@H]1CCCC[C@H]1Nc1nc2cc(F)c(Cn3cnc4cccnc43)cc2s1 [Example 154, (1R,2R)-2-((6-((3H-imidazo[4,5-b]pyridin-3-yl)methyl)-5-fluorobenzo[d]thiazol-2-yl)amino)cyclohexanol] | 5.70 to 6.30 | 7.70 to 8.30 | 5.70 to 6.30 | 6.70 to 7.30 | 6.40 to 7.30 | 
O[C@@H]1CCCC[C@H]1Nc1nc2ncc(Cn3cnc4cccnc43)cc2s1 [Example 114, (1R,2R)-2-((6-((3H-imidazo[4,5-b]pyridine-3-yl)methyl)thiazolo[4,5-b]pyridine-2-yl)amino)cyclohexanol] | 5.70 to 6.30 | < 7.30 | 6.30 to 7.00 | 6.70 to 7.30 | < 5.82 | 
O[C@H]1[C@@H](O)CCC[C@H]1Nc1nc2ccc(Cn3cnc4cc(F)cnc43)cc2s1 [Example 228, (1S,2R,3R)-3-((6-((6-fluoro-3H-imidazo[4,5-b]pyridin-3-yl)methyl)benzo[d]thiazol-2-yl)amino)cyclohexane-1,2-diol] | 6.30 to 7.30 | < 7.30 | 5.70 to 6.30 | < 6.30 | < 5.82 | 
O[C@@H]1CCCC[C@H]1Nc1nc2ccc(Cn3cnc4cc(F)c(F)cc43)cc2s1 [Example 128, (1R,2R)-2-((6-((5,6-difluoro-1H-benzo[d]imidazol-1-yl)methyl)benzo[d]thiazol-2-yl)amino)cyclohexanol] | 6.30 to 7.30 | 7.70 to 8.30 | 6.30 to 7.00 | 6.30 to 6.70 | 5.82 to 6.40 | 
O=C(O)/C=C/c1ccc2c(c1)ncn2Cc1ccc2nc(N[C@@H]3CCCC[C@H]3O)sc2c1 [Example 224, (E)-3-(1-((2-(((1R,2R)-2-hydroxycyclohexyl)amino)benzo[d]thiazol-6-yl)methyl)-1H-benzo[d]imidazol-5-yl)acrylic acid] | 6.30 to 7.30 | 7.70 to 8.30 | ≥ 7.00 | < 6.30 | < 5.82 | 
OCCOc1ccc2c(c1)ncn2Cc1ccc2nc(N[C@@H]3CCCC[C@H]3O)sc2c1 [Example 172, (1R,2R)-2-((6-((5-(2-hydroxyethoxy)-1H-benzo[d]imidazol-1-yl)methyl)benzo[d]thiazol-2-yl)amino)cyclohexanol] | 6.30 to 7.30 | ≥ 8.30 | 6.30 to 7.00 | ≥ 7.30 | 6.40 to 7.30 | 

Second part, led by results:

pKd (PDGFRβ) | pKd (CSF1R [1]) | pKd (KIT) | pIC50 (CSF1R [2]) | SMILES | pIC50 (M-NFS-60 cells; Mus musculus) | pIC50 (M-NFS-60 cells)
≥ 7.30 | ≥ 8.30 | ≥ 7.00 | ≥ 7.30 | O[C@@H]1CCCC[C@H]1Nc1nc2ccc(Cc3cnc4ccc(Cl)nn34)cc2s1 [Example 158, (1R,2R)-2-((6-((6-chloroimidazo[1,2-b]pyridazin-3-yl)methyl)benzo[d]thiazol-2-yl)amino)cyclohexanol] | ≥ 7.30 | 
6.30 to 7.30 | 7.70 to 8.30 | 6.30 to 7.00 | 6.70 to 7.30 | C#Cc1ccc2c(c1)ncn2Cc1ccc2nc(N[C@@H]3CCCC[C@H]3O)sc2c1 [Example 121, (1R,2R)-2-((6-((5-ethynyl-1H-benzo[d]imidazol-1-yl)methyl)benzo[d]thiazol-2-yl)amino)cyclohexanol] | 6.40 to 7.30 | 
6.30 to 7.30 | 7.70 to 8.30 | 6.30 to 7.00 | ≥ 7.30 | COc1nc2c(cc1C#N)ncn2Cc1ccc2nc(N[C@@H]3CCCC[C@H]3O)sc2c1 [Example 126, 3-((2-(((1R,2R)-2-hydroxycyclohexyl)amino)benzo[d]thiazol-6-yl)methyl)-5-methoxy-3H-imidazo[4,5-b]pyridine-6-carbonitrile] | 6.40 to 7.30 | 
6.30 to 7.30 | ≥ 8.30 | 6.30 to 7.00 | ≥ 7.30 | CC(=O)c1ccc2c(c1)ncn2Cc1ccc2nc(N[C@@H]3CCCC[C@H]3O)sc2c1 [Example 110, 1-(1-((2-(((1R,2R)-2-hydroxycyclohexyl)amino)benzo[d]thiazol-6-yl)methyl)-1H-benzo[d]imidazol-5-yl)ethanone] | 6.40 to 7.30 | 
6.30 to 7.30 | ≥ 8.30 | ≥ 7.00 | 6.70 to 7.30 | COc1ccc2ncc(Cc3ccc4nc(N[C@@H]5CCCC[C@H]5O)sc4c3)n2n1 [Example 150, (1R,2R)-2-((6-((6-methoxyimidazo[1,2-b]pyridazin-3-yl)methyl)benzo[d]thiazol-2-yl)amino)cyclohexanol] | 6.40 to 7.30 | 
≥ 7.30 | 7.70 to 8.30 | 6.30 to 7.00 | 6.30 to 6.70 | O[C@@H]1CCCC[C@H]1Nc1nc2ccc(Cn3cnc4cc(OC(F)(F)F)ccc43)cc2s1 [Example 149, (1R,2R)-2-((6-((5-(trifluoromethoxy)-1H-benzo[d]imidazol-1-yl)methyl)benzo[d]thiazol-2-yl)amino)cyclohexanol] | 6.40 to 7.30 | 
6.30 to 7.30 | 7.70 to 8.30 | < 5.70 | < 6.30 | N#Cc1ccn2c(Cc3ccc4nc(N[C@@H]5CCCC[C@H]5O)sc4c3)cnc2c1 [Example 117, 3-((2-(((1R,2R)-2-hydroxycyclohexyl)amino)benzo[d]thiazol-6-yl)methyl)imidazo[1,2-a]pyridine-7-carbonitrile] | 5.82 to 6.40 | 
6.30 to 7.30 | ≥ 8.30 | 6.30 to 7.00 | 6.70 to 7.30 | O[C@H]1CCCC[C@H]1Nc1nc2ccc(Cn3cnc4cc(F)cnc43)cc2s1 [Example 162, (1S,2R)-2-((6-((6-fluoro-3H-imidazo[4,5-b]pyridin-3-yl)methyl)benzo[d]thiazol-2-yl)amino)cyclohexanol] |  | 6.40 to 7.30
6.30 to 7.30 | < 7.30 | 6.30 to 7.00 | < 6.30 | O[C@H]1CC[C@H](Nc2nc3ccc(Cn4cnc5cc(F)cnc54)cc3s2)CC1 [Example 163, trans-4-((6-((6-fluoro-3H-imidazo[4,5-b]pyridin-3-yl)methyl)benzo[d]thiazol-2-yl)amino)cyclohexanol] | < 5.82 | 
≥ 7.30 | 7.70 to 8.30 | 6.30 to 7.00 | 6.70 to 7.30 | Cc1ccc2c(c1)ncn2Cc1ccc2nc(N[C@@H]3CCCC[C@H]3O)sc2c1 [Example 127, (1R,2R)-2-((6-((5-methyl-1H-benzo[d]imidazol-1-yl)methyl)benzo[d]thiazol-2-yl)amino)cyclohexanol] | 6.40 to 7.30 | 
≥ 7.30 | 7.70 to 8.30 | ≥ 7.00 | 6.70 to 7.30 | O[C@@H]1[C@H](O)CCC[C@H]1Nc1nc2ccc(Cn3cnc4cc(N5CCOCC5)ccc43)cc2s1 [Example 235, (1R,2S,3R)-3-((6-((5-morpholino-1H-benzo[d]imidazol-1-yl)methyl)benzo[d]thiazol-2-yl)amino)cyclohexane-1,2-diol] | 6.40 to 7.30 | 
≥ 7.30 | ≥ 8.30 | ≥ 7.00 | ≥ 7.30 | O[C@@H]1CCCC[C@H]1Nc1nc2ccc(Cc3cnc4cccnn34)cc2o1 [Example 142, (1R,2R)-2-((6-(imidazo[1,2-b]pyridazin-3-ylmethyl)benzo[d]oxazol-2-yl)amino)cyclohexanol] | 6.40 to 7.30 | 
≥ 7.30 | ≥ 8.30 | ≥ 7.00 | ≥ 7.30 | Oc1ccc2c(c1)ncn2Cc1ccc2nc(N[C@@H]3CCCC[C@H]3O)sc2c1 [Example 147, 1-((2-(((1R,2R)-2-hydroxycyclohexyl)amino)benzo[d]thiazol-6-yl)methyl)-1H-benzo[d]imidazol-5-ol] | 6.40 to 7.30 | 
